The source made the active and inactive calls.
Legend:
Format in all cases: functional, organism-based
Bacillus pumilus [1] = assay: Antibacterial activity against Bacillus pumilus ATCC 27142 at 0.1 mg/ml by agar plate method
Bacillus subtilis [2] = assay: Antibacterial activity against Bacillus subtilis ATCC 6633 at 0.1 mg/ml by agar plate method
Staphylococcus aureus [3] = assay: Antibacterial activity against Staphylococcus aureus ATCC 25923 at 0.1 mg/ml by agar plate method
Enterococcus faecalis [4] = assay: Antibacterial activity against Streptococcus faecalis at 0.1 mg/ml by agar plate method
[5] = tested on: Mycobacterium tuberculosis; assay: Antimycobacterial activity against Mycobacterium tuberculosis H37Rv at 0.1 mg/ml by rapid radiometric method
[6] = tested on: Mycobacterium tuberculosis; assay: Antimycobacterial activity against Mycobacterium tuberculosis H37Rv at 0.006 mg/ml by rapid radiometric method
Bacillus pumilus [7] = assay: Antibacterial activity against Bacillus pumilus ATCC 27142 at 0.01 mg/ml by agar plate method
Bacillus subtilis [8] = assay: Antibacterial activity against Bacillus subtilis ATCC 6633 at 0.01 mg/ml by agar plate method
Staphylococcus aureus [9] = assay: Antibacterial activity against Staphylococcus aureus ATCC 25923 at 0.01 mg/ml by agar plate method
Enterococcus faecalis [10] = assay: Antibacterial activity against Streptococcus faecalis at 0.01 mg/ml by agar plate method
Bacillus cereus = assay: Antibacterial activity against Bacillus cereus at 0.01 mg/ml by agar plate method
Enterobacter cloacae = assay: Antibacterial activity against Enterobacter cloacae ATCC 13047 at 0.01 mg/ml by agar plate method
Escherichia coli = assay: Antibacterial activity against Escherichia coli ATCC 25922 at 0.01 mg/ml by agar plate method
Klebsiella pneumoniae = assay: Antibacterial activity against Klebsiella pneumoniae ATCC 10031 at 0.01 mg/ml by agar plate method
Pantoea agglomerans = assay: Antibacterial activity against Pantoea agglomerans ATCC 27155 at 0.01 mg/ml by agar plate method
Pseudomonas aeruginosa = assay: Antibacterial activity against Pseudomonas aeruginosa ATCC 27853 at 0.05 mg/ml by agar plate method
Serratia marcescens = assay: Antibacterial activity against Serratia marcescens ATCC 13880 at 0.1 mg/ml by agar plate method
[11] = tested on: Mycobacterium tuberculosis; assay: Antimycobacterial activity against Mycobacterium tuberculosis H37Rv at 0.004 mg/ml by rapid radiometric method

Measured: Activity

Cc1cc(O)c2c(c1)C(=O)C[C@H](c1c(C)cc3c(c1O)C(=O)CCC3O)[C@@H]2O (stereo not given in full)
inactive: Bacillus pumilus [1]

Cc1cc(O)c2c(c1)[C@H](O)CCC2=O
active: Bacillus pumilus [1] | Bacillus subtilis [2] | Staphylococcus aureus [3] | Enterococcus faecalis [4] | [5]

CC[C@@H](CO)NCCN[C@@H](CC)CO
active: [6]

C=C(C)[C@@H]1CC[C@]2(C)CC[C@]3(C)[C@@H](CC[C@@H]4[C@@]5(C)CC[C@H](OC(=O)/C=C/c6ccc(OC)c(O)c6)C(C)(C)[C@@H]5CC[C@]43C)[C@H]12
active: Bacillus pumilus [1]

CN[C@@H]1[C@H](O[C@H]2[C@H](O[C@H]3[C@H](O)[C@@H](O)[C@H](N=C(N)N)[C@@H](O)[C@@H]3N=C(N)N)O[C@@H](C)[C@]2(O)C=O)O[C@@H](CO)[C@H](O)[C@H]1O
not listed: Bacillus pumilus [1] | Bacillus subtilis [2] | Staphylococcus aureus [3] | Enterococcus faecalis [4] | [5] | [6]
active: all other assays above

Reference: ChEMBL document CHEMBL1148958, “Antibacterial activity of naphthoquinones and triterpenoids from Euclea natalensis root bark” (J Nat Prod, 2004)
